Experimental data from patent publication US20070010669A1, “Novel class of cytodifferentiating agents and histone deacetylase inhibitors, and methods of use thereof” (priority 1999, published 2007).
Like-named read-outs stand apart in the source and are kept apart here.

Columns and labels:
[1] = tested on: Murine erythroleukemia (MEL) cells; assay: MEL cell differentiation assay (benzidine assay; cell growth by Coulter Counter); assay type: cell-based; details: for MEL Diff % B+ / MEL Diff Cells/ml × 10^−5: Table 2; for concentration able to induce MEL cell differentiation: FIGS. 1, 3, 4, 6; for concentration able to induce MEL cell differentiation / MEL Differentiation Opt.: 5-day culture; for MEL Differentiation % B+ / MEL Differentiation Opt.: Table 1; for MEL Differentiation % B+: benzidine-positive cells at Opt. concentration; for MEL Differentiation Opt.: optimal concentration; for MEL Diff Cells/ml × 10^−5: cell growth
Protocol: The MEL cell differentiation assay was used to assess the ability of Compound 1 to induce terminal differentiation. MEL cells (logarithmically dividing) were cultured with the indicated concentrations of Compound 1. Following a 5-day culture period, cell growth was determined using a Coulter Counter and differentiation was determined microscopically using the benzidine assay to determine hemoglobin protein accumulation on a per cell basis.
The MEL cell differentiation assay was used to assess the ability of Compound 2 to induce terminal differentiation. MEL cells (logarithmically dividing) were cultured with the indicated concentrations of Compound 2. Following a 5-day culture period differentiation was determined microscopically using the benzidine assay to determine hemoglobin protein accumulation on a per cell basis.
The MEL cell differentiation assay was used to assess the ability of Compound 3 to induce terminal differentiation. MEL cells (logarithmically dividing) were cultured with the indicated concentrations of Compound 3. Following a 5-day culture period differentiation was determined microsdopically using the benzidine assay to determine hemoglobin protein accumulation on a per cell basis.
The MEL cell differentiation assay was used to assess the ability of Compound 4 to induce terminal differentiation. MEL cells (logarithmically dividing) were cultured with the indicated concentrations of Compound 4. Following a 5-day culture period differentiation was determined microscopically using the benzidine assay to determine hemoglobin protein accumulation on a per cell basis.
All the compounds which were prepared were tested. […] Table 2 is compiled from experiments similar to the experiments described in Examples 7-10 above.

[2] = molecular target: affinity purified human epitope-tagged (Flag) HDAC1 (Homo sapiens, UniProt Q13547); assay: Histone Deacetylase (HDAC) enzymatic activity, [3H]acetyl-labeled histone substrate; assay type: biochemical; parameters: Flag
Protocol: Substrate ([^3H]acetyl-labeled murine erythroleukemia cell-derived histone) was added and the samples were incubated for 20 min at 37° C. in a total volume of 30 μl. The reaction were then stopped and released acetate was extracted and the amount of radioactivity released determined by scintillation counting.
Substrate ([^3H]acetyl-labelled murine erythroleukemia cell-derived histone) was added and the samples were incubated for 20 min at 37° C. in a total volume of 30 μl. The reactions were then stopped and relaesed acetate was extracted and the amount of radioactivity released determined by scintillation counting.
Substrate ([^3H]acetyl-labelled murine erythroleukemia cell-derived histone) was added and the samples were incubated for 20 min at 37° C. in a total volume of 30 μl. The reactions were then stopped and released acetate was extracted and the amount of radioactivity released determined by scintillation counting.
The effect was assayed by incubating the enzyme preparation in the absence of substrate on ice for 20 minutes with the indicated amounts of compound. Substrate([^3H]acetyl-labeled murine erythroleukemia cell-derived histones) was added and the samples were incubated for 20 minutes at 37° C. in a total volume of 30 μl. The reactions were then stopped and released acetate was extracted and the amount of radioactivity released determined by scintillation counting.

[3] = Table 2, unit nM, read-out: HDAC inh ID50
[4] = FIGS. 2, 5, 7, read-out: ID50 of HDAC1 enzymatic activity
[5] = Table 2, unit column μm, read-out: HDAC inh ID50
[6] = Table 2, unit μM, read-out: HDAC inh ID50

Chain of affinity purified human epitope-tagged (Flag) HDAC1 (Q13547 whole entry): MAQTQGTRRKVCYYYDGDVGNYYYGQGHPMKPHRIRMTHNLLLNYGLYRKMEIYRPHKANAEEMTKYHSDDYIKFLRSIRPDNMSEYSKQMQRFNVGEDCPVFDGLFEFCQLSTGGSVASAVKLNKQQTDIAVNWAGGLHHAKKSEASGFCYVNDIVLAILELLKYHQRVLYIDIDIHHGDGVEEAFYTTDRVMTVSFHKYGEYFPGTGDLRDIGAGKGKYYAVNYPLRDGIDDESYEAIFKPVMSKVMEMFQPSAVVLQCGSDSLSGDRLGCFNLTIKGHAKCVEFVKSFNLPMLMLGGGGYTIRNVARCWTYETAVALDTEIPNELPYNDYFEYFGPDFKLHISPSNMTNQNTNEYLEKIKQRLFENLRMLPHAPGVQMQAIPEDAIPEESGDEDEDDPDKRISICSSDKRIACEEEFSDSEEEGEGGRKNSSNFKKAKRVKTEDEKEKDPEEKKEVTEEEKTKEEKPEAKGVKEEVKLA

SMILES	MEL Diff % B+ [1]	IC50 [2, 3]	MEL Diff Cells/ml × 10^−5 [1]	other results
O=C(CCCCC[C@H](NC(=O)c1cccnc1)C(=O)Nc1ccccc1)NO (stereo in doubt) [Compound 2, N-Nicotinoyl-(L)-α-aminosuberoylanilide-ω-hydroxamic acid]	27%	50 nM		
O=C(CCCCC[C@H](NC(=O)c1ccccc1)C(=O)Nc1ccccc1)NO [Compound 1, N-Benzoyl-(L)-α-aminosuberoylanilide-ω-hydroxamic acid]	44%		9 Cells/ml × 10^−5	concentration able to induce MEL cell differentiation [1]: 200 nM; MEL Differentiation % B+ [1]: 44%; MEL Differentiation Opt. [1]: 200 nM; IC50 [2, 4]: 1 nM
O=C(CCCCC[C@H](NC(=O)c1cccnc1)C(=O)Nc1ccccc1)NO [Compound 2, N-Nicotinoyl-(L)-α-aminosuberoylanilide-ω-hydroxamic acid]				concentration able to induce MEL cell differentiation [1]: 800 nM; MEL Differentiation % B+ [1]: 27%; MEL Differentiation Opt. [1]: 800 nM
O=C(CCCCCC(NC(=O)OCc1ccccc1)C(=O)Nc1ccccc1)NO (stereo not drawn) [Compound 3, N-benzyloxycarbonyl-(L)-α-aminosuberateanilide-ω-hydroxamic acid]	16%	100 nM	3.3 Cells/ml × 10^−5	
O=C(CCCCC[C@H](NC(=O)OCc1ccccc1)C(=O)Nc1ccccc1)NO [Compound 3, N-benzyloxycarbonyl-(L)-α-aminosuberateanilide-ω-hydroxamic acid]				concentration able to induce MEL cell differentiation [1]: 400 nM; MEL Differentiation % B+ [1]: 16%; MEL Differentiation Opt. [1]: 400 nM; IC50 [2, 4]: 100 nM
O=C(/C=C/c1cccc(C(C(=O)Nc2ccccc2)C(=O)Nc2ccccc2)c1)NO [Compound 77, 3-(malonyldi(phenylamide)) cinnamyl hydroxamic acid]	9%		9.0 Cells/ml × 10^−5	
O=C(O)CCCCC[C@@H](NC(=O)c1ccccc1)C(=O)Nc1ccccc1 [Compound 656]	0%			IC50 [2, 5]: > 100000 nM
O=C(O)CCCCC[C@@H](NC(=O)c1cccnc1)C(=O)Nc1ccccc1 [Compound 657]	0%			IC50 [2, 5]: > 100000 nM
O=C(O)CCCCCC(NC(=O)OCc1ccccc1)C(=O)Nc1cccc2cccnc12 (centres unmarked) [Compound 659]	0%			IC50 [2, 6]: 10000 nM
O=C(CCCCC[C@@H](NC(=O)c1ccccc1)C(=O)Nc1cccc2cccnc12)NO [Compound 661]	7%	20 nM		
CS(=O)(=O)NCCCCCC(=O)Nc1ccccc1 [Compound 662]	0%			IC50 [2, 6]: > 100000 nM
O=C(CCCCC[C@@H](NC(=O)c1ccccc1)NC(=O)C1CCCCC1)NO [Compound 663]	43%	100 nM	7 Cells/ml × 10^−5	
O=C(CCCCC[C@H](NC(=O)c1cnc2ccccc2c1)C(=O)Nc1ccccc1)NO [Compound 664]	33%	50 nM	22 Cells/ml × 10^−5	
O=C(CCCCC[C@H](NC(=O)c1cccs1)C(=O)Nc1ccccc1)NO [Compound 665]	24%	50 nM	30 Cells/ml × 10^−5	
O=C(CCCCCC(C(=O)Nc1ccccc1)C(=O)Nc1ccccc1)NO [Compound 666]	31%	100 nM	28 Cells/ml × 10^−5	
O=C(CCCCCC(C(=O)Nc1cccc2cccnc12)C(=O)Nc1cccc2cccnc12)NO [Compound 667]	27%	50 nM	2 Cells/ml × 10^−5	
O=C(CCCCCCC(=O)Nc1cccc2cccnc12)NO [Compound 668]	11%	100 nM	4.7 Cells/ml × 10^−5	
O=C(Nc1ccccc1)C(CCCCCC(=O)C(F)(F)F)C(=O)Nc1ccccc1 [Compound 669]	11%		16.0 Cells/ml × 10^−5	IC50 [2, 6]: 10000 nM

SMILES	MEL Diff % B+ [1]	IC50 [2, 3]	MEL Diff Cells/ml × 10^−5 [1]	other results
O=C(CCCCCCC(=O)C(F)(F)F)Nc1ccccc1 [Compound 670]			13.0 Cells/ml × 10^−5	
CN(C)c1cccc2cc(S(=O)(=O)NCCCCCC(=O)NO)ccc12 [Compound 671]	35%	200 nM	12.5 Cells/ml × 10^−5	
COP(=O)(NCCCCCC(=O)Nc1ccccc1)OC [Compound 673]	0%		No inh	
OC(c1ncc[nH]1)(c1ncc[nH]1)c1nc(CCCCCc2cnc(C(O)(c3ncc[nH]3)c3ncc[nH]3)[nH]2)c[nH]1 [Compound 674]	0%		Dead at 25 μM	IC50 [2, 6]: 50000 nM
CC(=O)SCCCCCC(=O)Nc1ccccc1 [Compound 675]	0%		No inh	IC50 [2, 6]: > 100000 nM
O=C(CCCCCBr)Nc1ccccc1 [Compound 676]	0%		No inh	
O=C(CCCCCC(C(=O)Nc1cnc2ccccc2c1)C(=O)Nc1cnc2ccccc2c1)NO [Compound 677]	23%	5 nM	4.5 Cells/ml × 10^−5	
NS(=O)(=O)CCCCCC(=O)Nc1ccccc1 [Compound 678]	0%		No inh	IC50 [2, 6]: > 100000 nM
O=C(CCCCCn1ccnc1)Nc1ccccc1 [Compound 679]	0%		No inh	IC50 [2, 6]: > 100000 nM
CC(=O)SCCCCCCCC(=O)Nc1ccccc1 [Compound 680]				IC50 [2, 6]: > 100000 nM
O=C(CCCCCC(C(=O)Nc1cccc2cccnc12)(C(=O)Nc1cccc2cccnc12)c1ccccc1)NO [Compound 681]	3%	200 nM	2.5 Cells/ml × 10^−5	
O=C(CCCCCC(C(=O)Nc1ccccc1)(C(=O)Nc1ccccc1)c1ccccc1)NO [Compound 682]	8%	150 nM	1.1 Cells/ml × 10^−5	
O=C(CCCCCCn1ccnc1)Nc1ccccc1 [Compound 684]	0%		No inh	
O=C(CCCCCC(CCCCCC(=O)NO)(C(=O)Nc1cccc2cccnc12)C(=O)Nc1cccc2cccnc12)NO [Compound 685]	20%	150 nM	1.0 Cells/ml × 10^−5	
NS(=O)(=O)CCCCCCC(=O)Nc1ccccc1 [Compound 686]	0%		No inh	
O=C(/C=C/c1cccc(C(=O)Nc2ccccc2)c1)NO [Compound 687]	0%		No inh	IC50 [2, 6]: 200000 nM
O=C(CCCCCCC(=O)Nc1cc[nH]n1)Nc1ccccc1 [Compound 688]	0%		No inh	IC50 [2, 6]: > 100000 nM
O=C(CCCCCC(C(=O)Nc1ccc2ncccc2c1)C(=O)Nc1ccc2ncccc2c1)NO [Compound 692]	27%			
